What is called pIC50 is the negative decadic logarithm of the IC50, by convention in mol/L. What is called AUC(0-inf) is the area under the concentration-time curve extrapolated to infinity. Broadly, the Tmax is the time at which the peak concentration occurs. As a reminder, the MRT inf is a mean duration of stay, worked out from the concentration-time curve. The clearance is a measure of how efficiently the substance is removed, as volume per time. Low values mean inefficient removal, high ones efficient removal. Usually bioavailability stands for the share of a dose that reaches the circulation, judged against a reference dose that is usually intravenous. The low end stands for little systemic uptake, the high end for much systemic uptake.

Results on one compound are retold here after ChEMBL document CHEMBL6177950, “Discovery of potent and selective CDK2 inhibitors with high safety and favorable bioavailability for the treatment of cancer” (Eur J Med Chem, 2025).

pIC50: −log10 of the molar value. Active and inactive are the calls of the source. The calls are words filed in the database; no cut-off is given here.

For series [1], the system named is OVCAR-3. The experiment in a line: Upregulation of Bcl2l1gene expression in human OVCAR-3 cells by GSEA. The format is functional, cell-based.
Series [2] is described as follows: Acute toxicity in ICR mouse assessed as pathological changes in heart at 1000 to 2500 mg/kg, po administered once for 14 days by H and E staining analysis. The format is organism-based. To be noted: in vivo, 336 h, dose 1000-2500 mg/kg, time 14 day.
Series [3] deals with OVCAR-3. The experiment in a line: Induction of cell senescence in human OVCAR-3 cells assessed as increase in beta galactosidase activity incubated for 24 hrs by staining based inverted microscopic analysis. The format is functional. The following applies: dose 1-2 µM.
The nature of series [4]: Antiproliferative activity against CCNE1-amplified human OVCAR-3 cells assessed as cell growth inhibition incubated for 3 days by CCK8 assay. The format is functional, cell-based. To be noted: OVCAR-3, 72 h. (In general: Tetrazolium dyes change colour on reduction, which living cells bring about.)
Another series concerns the target CDK1/Cyclin A (Homo sapiens, UniProt P06493). The experiment in a line: Inhibition of CDK1/Cyclin A2 (unknown origin) pre-incubated for 10 mins followed by ATP/substrate addition and measured after 60 mins by ADP-Glo assay. The format is protein-complex assay. On the technique in general: ADP-Glo first removes unused ATP, then detects ADP through luciferase.
A short description of series [5]: Acute toxicity in ICR mouse assessed as effect on spleen weight at 1000 to 2500 mg/kg, po administered once for 14 days. The format is organism-based. The following applies: in vivo, 336 h, dose 1000-2500 mg/kg, time 14 day.
The subject of series [6] is OVCAR-3. The experiment in a line: Induction of apoptosis in human OVCAR-3 cells incubated for 24 hrs by Annexin V-FITC/PI staining based flow cytometry analysis. The format is functional, cell-based. The following applies: dose 1-2 µM. Background: A flow cytometer gives signals particle by particle.
Series [7] in a line: Toxicity in nude BALB/c mouse xenografted with human OVCAR-3 cells assessed as increase in body weight at 40 to 80 mg/kg, po administered once daily for 21 days. The format is organism-based. To be noted: in vivo, 504 h, dose 40-80 mg/kg, time 21 day.
Series [8] can be described thus: AUC (0 to infinity) in Sprague-Dawley rat at 2 mg/kg, iv by LC-MS/MS analysis. The format is ADME, organism-based. To be noted: in vivo.
A short description of series [9]: Tmax in Sprague-Dawley rat at 20 mg/kg, po by LC-MS/MS analysis. The format is ADME, organism-based. To be noted: in vivo.
Series [10] is described as follows: AUC (0 to infinity) in Sprague-Dawley rat at 20 mg/kg, po by LC-MS/MS analysis. The format is ADME, organism-based. To be noted: in vivo.
Series [11] can be described thus: Acute toxicity in ICR mouse assessed as effect on heart weight at 1000 to 2500 mg/kg, po administered once for 14 days. The format is organism-based. To be noted: in vivo, 336 h, dose 1000-2500 mg/kg, time 14 day.
The nature of series [12]: MRT (0 to infinity) in Sprague-Dawley rat at 20 mg/kg, po by LC-MS/MS analysis. The following applies: in vivo. The format is ADME, organism-based.
In series [13] the test system is OVCAR-3. Put plainly: Antitumor activity against human OVCAR-3 cells xenografted in nude BALB/c mouse model assessed as tumor growth inhibition at 80 mg/kg, po administered once daily for 21 days. The format is functional, organism-based. To be noted: time 21.0 day.
Series [14] in a line: Clearance in Sprague-Dawley rat at 2 mg/kg, iv by LC-MS/MS analysis. The format is ADME, organism-based. To be noted: in vivo.
Series [15] in a line: Oral bioavailability in Sprague-Dawley rat at 20 mg/kg by LC-MS/MS analysis. The format is ADME, organism-based. To be noted: in vivo.
The test system of another series is MCF7. The experiment in a line: Antiproliferative activity against wild type human MCF7 cells assessed as cell growth inhibition. The format is functional, cell-based.
The subject of series [16] is OVCAR-3. The experiment in a line: Induction of apoptosis in human OVCAR-3 cells assessed as early apoptotic cells at 1 uM incubated for 24 hrs by Annexin V-FITC/PI staining based flow cytometry analysis (reference value: 1.25%). The format is functional.
For series [17], the system named is OVCAR-3. Put plainly: Antitumor activity against human OVCAR-3 cells xenografted in nude BALB/c mouse assessed as suppression of tumor cell proliferation at 40 to 80 mg/kg, po administered once daily for 21 days by Ki67 staining based analysis. The format is functional, organism-based. The following applies: dose 40-80 mg/kg, time 21.0 day.
The test system of series [18] is OVCAR-3. Put plainly: Upregulation of apoptosis-related signaling pathway gene expression in human OVCAR-3 cells by GSEA. The format is functional, cell-based.
The nature of series [19]: Antiproliferative activity against Palbociclib-resistance human MCF7 cells assessed as cell growth inhibition. The format is functional, cell-based, Palbociclib-resistant MCF7 cell.
Series [20] has as its system OVCAR-3. Put plainly: Induction of cell cycle arrest in human OVCAR-3 cells assessed as accumulation of cells at G1 phase at 2 uM incubated for 24 hrs by flow cytometry analysis (reference value: 67.73%). The format is functional.
Series [21] addresses Cyclin-dependent kinase 2/cyclin E1 (Homo sapiens, UniProt P24941). The experiment in a line: Inhibition of CDK2/Cyclin E1 (unknown origin) pre-incubated for 10 mins followed by ATP/substrate addition and measured after 60 mins by ADP-Glo assay. The format is protein-complex assay.

Sequence of CDK1/Cyclin A (P06493 whole entry): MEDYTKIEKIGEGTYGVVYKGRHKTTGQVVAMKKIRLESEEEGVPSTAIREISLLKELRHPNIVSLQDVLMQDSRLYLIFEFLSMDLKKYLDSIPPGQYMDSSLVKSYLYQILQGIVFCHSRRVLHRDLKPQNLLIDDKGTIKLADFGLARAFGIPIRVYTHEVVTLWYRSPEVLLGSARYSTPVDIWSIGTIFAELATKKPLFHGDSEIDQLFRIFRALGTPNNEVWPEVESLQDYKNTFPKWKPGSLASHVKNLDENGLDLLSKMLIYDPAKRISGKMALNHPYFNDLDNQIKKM
Sequence of CDK1/Cyclin A (P20248 whole entry, further chain): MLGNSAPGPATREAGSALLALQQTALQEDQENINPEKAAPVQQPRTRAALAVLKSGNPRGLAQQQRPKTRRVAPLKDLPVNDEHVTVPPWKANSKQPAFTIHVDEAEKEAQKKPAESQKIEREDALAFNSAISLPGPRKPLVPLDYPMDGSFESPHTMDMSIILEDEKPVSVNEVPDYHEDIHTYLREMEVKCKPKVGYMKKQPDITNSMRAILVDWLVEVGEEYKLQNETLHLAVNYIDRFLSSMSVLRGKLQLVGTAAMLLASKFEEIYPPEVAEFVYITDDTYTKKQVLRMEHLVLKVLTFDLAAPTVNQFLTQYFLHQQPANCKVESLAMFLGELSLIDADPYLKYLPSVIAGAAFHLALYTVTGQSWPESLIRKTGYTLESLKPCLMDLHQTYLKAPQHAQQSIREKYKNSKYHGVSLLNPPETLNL

Consider `CCC(C)n1cc(-c2nc(NC3CCN(S(=O)(=O)C4CC4)CC3)ncc2F)cc(F)c1=O` (stereo not drawn), for which the result with OVCAR-3 [1], in the series with OVCAR-3 [13], with OVCAR-3 [17] and with OVCAR-3 [18] was Active. Besides, the Activity entry in [2] is “Non-toxic”; with OVCAR-3 [3], “Dose-dependent-effect”; in series [5] it was “Non-toxic”; with OVCAR-3 [6], “Dose-dependent-effect”; in series [7] it was “Non-toxic”; in series [11] it was “Non-toxic”. Further, the figures for the Activity with OVCAR-3 [16] and with OVCAR-3 [20] were 2.65% and 96.27%, respectively. Also, the negative logarithm of the IC50 (pIC50) was 5.79 in [4]; 7.82 against CDK1/Cyclin A; 6.73 in the series on MCF7; 6.02 in series [19]; 9.05 in [21]. Further, the AUC(0-inf) in series [8] is 1480 ng·h/mL; in [10], 11800 ng·h/mL. Also, the time of peak concentration (Tmax) in series [9] worked out at 0.5 h. In [12], the MRT inf is 6.7 h. In addition, the clearance in series [14] is 28.3 mL/min/kg. This compound also came in with a bioavailability in [15] of 79.5%.
